Measurements from patent publication US10132029B2, “Method for reducing adhesion of microorganisms to fabrics” (priority 2013, dated 2018).
Like-named read-outs stand apart in the source and are kept apart here.

Experiments:
P. aeruginosa DSMZ 1117 = assay type: cell-based, Pseudomonas aeruginosa; conditions: for Reduction in adhered bacteria [%]: P. aeruginosa, polyester; for Reduction in adhered bacteria [%] P. aeruginosa: polyester fabric, application concentration 0.1 wt %, commercial product applied directly by padding, relative to uncoated fabric
Protocol: Circular fabric samples with a diameter of 0.6 cm were punched from coated and uncoated cotton and polyester fabrics. The fabric samples were fixed to a microtiter plate. The fabric samples were washed with acetone and sterilized with UV light for 60 minutes.
The strains were coated fresh from glycerol bacterial cultures onto tryptic soy agar (TSA). Incubation took place overnight at 33° C. The nutrient medium prepared was a tryptic soy broth (TSB), with 30% of the amount recommended by the manufacturer, supplemented with 0.25% of glucose. […] The nutrient medium was inoculated with the bacterial cultures and after inoculation was cultivated overnight at 37° C. and 160 rpm.
The resulting overnight cultures were centrifuged at 8500 g for 15 minutes and washed with 50 ml of isotonic saline solution (0.9 wt %). Bacterial suspensions in isotonic saline solutions were prepared. The optical density of the various bacterial suspensions was determined at 595 nm and adjusted to a level of about 1.2.
50 μl of the final microorganism suspension in isotonic saline solution (0.9 wt %) prepared as described under 2.2 were added to the coated and uncoated fabric samples fixed on the microtiter plate (see 2.1). The microtiter plates were closed and sealed off with Parafilm. The microtiter plates were placed in an antievaporation box and incubated at 33° C. for 2 h and at 40 rpm. The expected colony-forming unit count (CFU) of the inoculum at the start was 10^6-10^7 CFU/ml.
After the biofilm had formed, the planctonic cells were removed and used as a sample for determining the optical density at 595 nm. For this purpose, the samples were made up to a volume of 150 μl, and 100 μl were withdrawn for the optical density determination in a photometer. […] Through the determination of the planctonic cells after the formation of biofilm, the amount of bacteria available for adhesion was monitored.
The fabric samples and the resulting biofilm were washed three times with 200 to 300 μl of isotonic saline solution.
The fabric samples obtained under 2.4 (after formation of biofilm) were placed together with 100 μl of isotonic saline solution into wells of a 96-well microtiter plate.
Investigations into the removal of the adhered microorganisms from the fabric surfaces were carried out with vortexing, ultrasound, with enzymatic treatment, or with combinations thereof. Treatment in the vortex amounted to 5 minutes and was performed horizontally. The ultrasound treatment was carried out in an ultrasound bath for 5 minutes. For the enzymatic removal, the fabric samples were treated with enzymes, such as trypsin or a mixture of different enzymes, for example, during incubation at 37° C. for 1 hour.
Following removal of the adhered bacteria, the fabric samples were removed from the microtiter plates.
The number of removed bacteria in the resulting suspension was determined by staining with Syto9 and fluorescence measurement (fluorescence filter with excitation at 485/20 nm and emission at 528/20 nm) or by staining with BacTiterGlo and bioluminescence measurement. Furthermore, it is possible to determine the number of adhered and removed microorganisms by means of protein assay (e.g., BCA assay, Bradford Assay) or optical density proliferation assay.
The relative variables (e.g., fluorescence units (RFU)) concerning the coated and uncoated fabrics were compared, allowing the reduction in adhered bacteria in % to be determined in accordance with the following formula: Reduction in adhered bacteria[%]=[(RFUuc−RFUuc)/RFUuc]*100 where • RFUuc=relative fluorescence units of the removed bacteria of the uncoated substrate • RFUc=relative fluorescence units of the removed bacteria of the coated substrate
The commercial products described in example 1 were applied directly by a padding method to polyester fabric samples.
Bacterial adhesion to the polyester fabric samples was investigated using the microtiter plate Syto9 assay, as described in example 2.

Staphylococcus aureus [1] = experiment: Antimicrobial activity of coated polyester fabric samples as per JIS L 1902; assay type: cell-based; conditions: for Antimicrobial activity[log] Unwashed: 18 hours at 37° C.
Protocol: The procedure here is that the fabric sample was inoculated with a defined amount of a microbial suspension (inoculum). Test specimens with a weight of approximately 0.4 g were investigated in a triplicate determination.
The inoculated fabric sample was incubated in a closed system at 37° C. over a period of 18 hours. Following incubation, the bacteria of a defined amount of a dilution solution were recorded. The difference in the bacterial count of the fabric sample at 0 hours in comparison to the fabric sample after 18 hours served as a basis for evaluation. The antimicrobial activity is reported as a logarithmic or percentage value. Here, a reduction in the microbe count of 0% corresponds to inadequate antimicrobial action, a microbe reduction in the range from 0.1 to less than 90% to an inadequate antibacterial action, and a microbe reduction of greater than 90% to a good antibacterial action.

Staphylococcus aureus [2] = assay type: cell-based; conditions: for Reduction in cell count relative to control [%] S. aureus: coated glass slide vs uncoated glass control K; for Cell count [1/cm^2] S. aureus: glass slide coated from 0.1% strength solution, bacterial suspension 10^9 microbes/ml, 30 measuring windows
From the text: (§1) Silane derivatives S1, S3, S4 and S5 as identified above in example 1 were used to produce coatings on glass slides. As a control (comparison sample) K, an uncoated glass slide cleaned with isopropanol was used.
(§2) For the coating of the slides they were immersed for 60 seconds into a 0.1% strength solution of the corresponding silane derivative in ethanol/water as solvent with a water fraction of 5%. The solutions had been adjusted with acetic acid beforehand to a pH in the range from 4 to 5. The wetted slides were subsequently dried at 160° C. for 1 hour.
(§3) The slides wetted with the bacterial suspension were analyzed by microscope to determine the adhering bacteria. […] The fluorescent dye used was DAPI (4′,6-diamidine-2-phenylindole), which binds to DNA and fluoresces under UV excitation. In order to determine the adhesion characteristics, the cell counts per cm^2 were ascertained in 30 measuring windows, and the adhesion pattern was evaluated. Cell attachment was evaluated on an Olympus IX 51 using the Labflow AnalySIS image processing program.
(§4) Bacterial suspensions produced and used were suspensions of test cultures of the strains Staphylococcus aureus and Escherichia coli. The concentration of the bacterial suspension was 10^9 microbes/ml.

Escherichia coli = experiment: Bacterial adhesion to coated glass slides via fluorescence microscopy (DAPI); assay type: cell-based; conditions: for Reduction in cell count relative to control [%] E. coli: coated glass slide vs uncoated glass control K; for Cell count [1/cm^2] E. coli: glass slide coated from 0.1% strength solution, bacterial suspension 10^9 microbes/ml, 30 measuring windows
From the text: as §1, §2, §3, §4

[3] = coating concentration 0.001 %, wash pretreatment (A) unwashed
[4] = coating concentration 0.001 %, wash pretreatment (B) washed twice at 30° C. only with water
[5] = coating concentration 0.001 %, wash pretreatment (C) washed once at 30° C. EN ISO 6330 method 8A with ECE B detergent
[6] = coating concentration 0.01 %, wash pretreatment (A) unwashed
[7] = coating concentration 0.01 %, wash pretreatment (B) washed twice at 30° C. only with water
[8] = coating concentration 0.01 %, wash pretreatment (C) washed once at 30° C. EN ISO 6330 method 8A with ECE B detergent
[9] = coating concentration 0.1 %, wash pretreatment (A) unwashed
[10] = coating concentration 0.1 %, wash pretreatment (B) washed twice at 30° C. only with water
[11] = coating concentration 0.1 %, wash pretreatment (C) washed once at 30° C. EN ISO 6330 method 8A with ECE B detergent
[12] = coating concentration 0.001 % based on fabric
[13] = coating concentration 0.01 % based on fabric
[14] = coating concentration 0.1 % based on fabric

Compound	Reduction in adhered bacteria [%] (P. aeruginosa DSMZ 1117; [3])	Reduction in adhered bacteria [%] (P. aeruginosa DSMZ 1117; [4])	Reduction in adhered bacteria [%] (P. aeruginosa DSMZ 1117; [5])	Reduction in adhered bacteria [%] (P. aeruginosa DSMZ 1117; [6])	Reduction in adhered bacteria [%] (P. aeruginosa DSMZ 1117; [7])	Reduction in adhered bacteria [%] (P. aeruginosa DSMZ 1117; [8])	Reduction in adhered bacteria [%] (P. aeruginosa DSMZ 1117; [9])	Reduction in adhered bacteria [%] (P. aeruginosa DSMZ 1117; [10])	Reduction in adhered bacteria [%] (P. aeruginosa DSMZ 1117; [11])	Reduction in adhered bacteria [%] P. aeruginosa (P. aeruginosa DSMZ 1117)	Antimicrobial activity[log] Unwashed (Staphylococcus aureus [1]; [12])	Antimicrobial activity[log] Washed once at 30° C., without detergent (Staphylococcus aureus [1]; [12])	Antimicrobial activity[log] Washed twice with water (Staphylococcus aureus [1]; [12])	Antimicrobial activity[log] Unwashed (Staphylococcus aureus [1]; [13])	Antimicrobial activity[log] Washed once at 30° C., without detergent (Staphylococcus aureus [1]; [13])	Antimicrobial activity[log] Washed twice with water (Staphylococcus aureus [1]; [13])	Antimicrobial activity[log] Unwashed (Staphylococcus aureus [1]; [14])	Antimicrobial activity[log] Washed once at 30° C., without detergent (Staphylococcus aureus [1]; [14])	Antimicrobial activity[log] Washed twice with water (Staphylococcus aureus [1]; [14])	Reduction in cell count relative to control [%] S. aureus (Staphylococcus aureus [2])	also measured
N-(triethoxysilylpropyl)-O-polyethylene oxide-urethane, (4-6 EO units) [S3]	63%	46%	69%	65%	37%	71%	85%	36%	76%	48%	−0.5 log	−0.8 log	−0.3 log	−0.1 log	−0.1 log	0.8 log	0.0 log	−0.4 log	0.3 log	83%	adhesion of S. aureus to coated glass, assessment in words (Staphylococcus aureus [2]; coated glass slides): Very good results; Cell count [1/cm^2] S. aureus (Staphylococcus aureus [2]): 77 000 1/cm^2; adhesion of bacteria to coated glass, assessment in words (Escherichia coli; both series of tests (S. aureus and E. coli), compared with glass control): very good results; Reduction in cell count relative to control [%] E. coli (Escherichia coli): 71%; Cell count [1/cm^2] E. coli (Escherichia coli): 233 000 1/cm^2
CO[Si](CCCN(CCN(CC(=O)[O-])CC(=O)[O-])CC(=O)[O-])(OC)OC.[Na+].[Na+].[Na+] [S5, N-(trimethoxysilylpropyl)ethylenediaminetriacetyl acid, trisodium salt]	81%	42%	77%	78%	54%	73%	68%	69%	67%	17%	0.5 log	−0.3 log	0.9 log	−0.3 log	−0.6 log	−0.2 log	−0.5 log	−0.6 log	−0.4 log	52%	Cell count [1/cm^2] S. aureus (Staphylococcus aureus [2]): 219 000 1/cm^2; Reduction in cell count relative to control [%] E. coli (Escherichia coli): 61%; Cell count [1/cm^2] E. coli (Escherichia coli): 306 000 1/cm^2
